Literature values, collected in US20090117102A1, “Methods and compositions using CD3 agonists” (priority 2004, published 2009).

Legend:
T cell [1] = details: Wong Transplantation 50 (1990)
T cell [2] = details: Van Wauve, J. Immunol. 124 (1980)

OKT3: murine monoclonal antibody specific for the human CD3 antigen, first monoclonal antibody approved by the FDA
T cell killer activity (T cell [1]): potent T cell killer
T cell mitogen activity (T cell [2]): potent T cell mitogen
